Reference: ChEMBL document CHEMBL3779891 (Eur J Med Chem, 2016)
Activity calls are given as the source filed them. The calls are words filed in the database; no cut-off is given here.

Tests used:
[1] = system: HepG2; assay: Antioxidant activity in human HepG2 cells assessed as decrease in fluorescence level by measuring ratio of micromol of quercetin to 100 umol of compound after 2.5 hrs measured every 5 mins for 1 hr by DCFH-DA staining based fluorescence assay; assay type: functional; parameters: scale not given: the % may be the effect or the level left
[2] = system: HepG2; assay: Antioxidant activity in human HepG2 cells assessed as decrease in fluorescence level after 2.5 hrs measured every 5 mins for 1 hr by DCFH-DA staining based fluorescence assay; assay type: functional, cell-based
[3] = system: HeLa; assay: Antiproliferative activity against human HeLa cells assessed as cell survival at 100 ug/ml after 48 hrs by MTT assay relative to control; assay type: functional; details: read-out: Survival
[4] = system: MCF7; assay: Antiproliferative activity against human MCF7 cells assessed as cell survival at 100 ug/ml after 48 hrs by MTT assay relative to control; assay type: functional; details: MCF7, 48 h, read-out: Survival
[5] = target: T1, Catalase (Homo sapiens) (UniProt P04040); assay: Reduction of catalase activity in human erythrocytes at 100 ug/ml preincubated followed by AAPH addition measured after 2 hrs; assay type: cell-based; parameters: scale not given: the % may be the effect or the level left
T1 sequence (whole entry): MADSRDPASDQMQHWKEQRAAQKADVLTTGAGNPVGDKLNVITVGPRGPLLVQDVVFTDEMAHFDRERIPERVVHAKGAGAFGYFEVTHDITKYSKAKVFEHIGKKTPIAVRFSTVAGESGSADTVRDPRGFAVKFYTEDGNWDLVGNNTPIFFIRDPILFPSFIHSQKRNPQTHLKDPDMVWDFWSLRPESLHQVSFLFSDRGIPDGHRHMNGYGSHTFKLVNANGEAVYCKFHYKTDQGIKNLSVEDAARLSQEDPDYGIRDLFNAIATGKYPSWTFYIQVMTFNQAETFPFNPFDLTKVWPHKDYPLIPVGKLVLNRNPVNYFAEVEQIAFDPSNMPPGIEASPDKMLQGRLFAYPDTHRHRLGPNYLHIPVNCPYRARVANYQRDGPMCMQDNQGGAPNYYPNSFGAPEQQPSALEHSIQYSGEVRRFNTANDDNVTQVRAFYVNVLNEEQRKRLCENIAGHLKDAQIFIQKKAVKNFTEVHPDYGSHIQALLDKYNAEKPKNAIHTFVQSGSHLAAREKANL

[6] = system: HeLa; assay: Antiproliferative activity against human HeLa cells assessed as reduction in cell survival after 48 hrs by MTT assay; assay type: functional, cell-based
[7] = system: HepG2; assay: Antioxidant activity in human HepG2 cells assessed as decrease in AAPH-induced ROS level at 100 ug/ml preincubated for 2 hrs followed by AAPH addition by DCFH-DA staining based microplate fluorometric analysis relative to control; assay type: functional; parameters: scale not given: the % may be the effect or the level left
[8] = system: Erythrocyte; assay: Inhibition of AAPH-induced oxidative hemolysis in human erythrocytes assessed as smooth and round surface at 100 ug/ml preincubated for 20 mins followed by AAPH addition measured after 2 hrs by scanning electron microscopic analysis; assay type: functional, cell-based
[9] = target: Superoxide dismutase [Cu-Zn] (Homo sapiens) (UniProt P00441); assay: Induction of superoxide dismutase activity in human erythrocytes at 100 ug/ml preincubated followed by AAPH addition measured after 2 hrs; assay type: cell-based
Sequence of Superoxide dismutase [Cu-Zn] (Homo sapiens) (P00441 whole entry): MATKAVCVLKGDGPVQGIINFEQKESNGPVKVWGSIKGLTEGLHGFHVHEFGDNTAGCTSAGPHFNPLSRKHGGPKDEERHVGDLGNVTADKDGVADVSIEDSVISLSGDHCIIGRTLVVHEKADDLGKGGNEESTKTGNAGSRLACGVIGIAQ

[10] = system: MCF7; assay: Induction of apoptosis in human MCF7 cells assessed as mitochondrial membrane potential loss at 100 ug/ml after 48 hrs by JC-1 staining based fluorescence microscopic analysis; assay type: functional, cell-based
[11] = system: Erythrocyte; assay: Cytoprotective activity in human erythrocytes assessed as inhibition of AAPH-induced oxidative hemolysis preincubated for 30 mins followed by AAPH induction measured after 2 hrs by spectrophotometric analysis; assay type: functional, cell-based
[12] = system: A549; assay: Antiproliferative activity against human A549 cells assessed as cell survival at 100 ug/ml after 48 hrs by MTT assay relative to control; assay type: functional; details: A549, 48 h, read-out: Survival
[13] = system: MCF7; assay: Induction of apoptosis in human MCF7 cells assessed as cytoplasm overflow at 500 ug/ml after 24 hrs by scanning electron microscopic analysis; assay type: functional, cell-based
[14] = system: MCF7; assay: Induction of apoptosis in human MCF7 cells assessed as nuclear morphological deformity at 500 ug/ml after 12 hrs by scanning electron microscopic analysis; assay type: functional, cell-based
[15] = system: Erythrocyte; assay: Inhibition of lipid peroxidation in human erythrocytes assessed as reduction in AAPH-induced malondialdehyde formation at 100 ug/ml preincubated for 20 mins followed by AAPH addition measured after 2 hrs by […] relative to untreated control; assay type: functional
[16] = system: MCF7; assay: Induction of apoptosis in human MCF7 cells assessed as morphological changes at 500 ug/ml by scanning electron microscopic analysis; assay type: functional, cell-based; details: TDE = time-dependent effect
[17] = system: A549; assay: Antiproliferative activity against human A549 cells assessed as reduction in cell survival after 48 hrs by MTT assay; assay type: functional, cell-based
[18] = Antiproliferative activity against human SGC7901 cells assessed as cell survival at 100 ug/ml after 48 hrs by MTT assay relative to control; assay type: functional; details: SGC-7901, 48 h, read-out: Survival
[19] = system: MCF7; assay: Induction of apoptosis in human MCF7 cells assessed as morphological deformity at 500 ug/ml after 48 hrs by scanning electron microscopic analysis; assay type: functional, cell-based
[20] = system: SGC-7901; assay: Antiproliferative activity against human SGC7901 cells assessed as reduction in cell survival after 48 hrs by MTT assay; assay type: functional, cell-based
[21] = system: MCF7; assay: Induction of apoptosis in human MCF7 cells assessed as plasma membrane blebbing at 500 ug/ml after 48 hrs by scanning electron microscopic analysis; assay type: functional, cell-based
[22] = system: Erythrocyte; assay: Cytoprotective activity in human erythrocytes assessed as inhibition of AAPH-induced oxidative hemolysis at 100 ug/ml preincubated for 30 mins followed by AAPH induction measured after 2 hrs by spectrophotometric analysis relative to control; assay type: functional
[23] = system: MCF7; assay: Induction of apoptosis in human MCF7 cells assessed as chromatin condensation at 500 ug/ml after 12 hrs by scanning electron microscopic analysis; assay type: functional, cell-based
[24] = system: MCF7; assay: Antiproliferative activity against human MCF7 cells assessed as reduction in cell survival after 48 hrs by MTT assay; assay type: functional, cell-based
[25] = system: MCF7; assay: Induction of apoptosis in human MCF7 cells assessed as chromatin hypercondensation at 25 to 100 ug/ml after 48 hrs by Hoechst 33258 staining based fluorescence microscopic analysis; assay type: functional, cell-based
[26] = system: MCF7; assay: Induction of apoptosis in human MCF7 cells assessed as cell shrinkage at 500 ug/ml after 24 hrs by scanning electron microscopic analysis; assay type: functional, cell-based
[27] = system: MCF7; assay: Induction of apoptosis in human MCF7 cells assessed as apoptotic bodies at 500 ug/ml after 48 hrs by scanning electron microscopic analysis; assay type: functional, cell-based
[28] = species on record: Homo sapiens; assay: Induction of glutathione peroxidase activity in human erythrocytes at 100 ug/ml preincubated followed by AAPH addition measured after 2 hrs; assay type: cell-based

Structure (SMILES): O=c1cc(-c2ccc(O)c(O)c2)oc2cc(O)cc(O)c12 [LUTEOLIN]
- Activity [1]: 32.3%

Structure (SMILES): COc1ccc(-c2cc(=O)c3c(O)cc(O)cc3o2)cc1O [DIOSMETIN]
- Activity [1]: 58%
- EC50 [2]: 7.98 µmol

Structure (SMILES): O=c1c(O)c(-c2cc(O)c(O)c(O)c2)oc2cc(O)cc(O)c12 [MYRICETIN]
- Activity [1]: 36.8%

Structure (SMILES): O=C(O[C@@H]1Cc2c(O)cc(O)cc2O[C@@H]1c1cc(O)c(O)c(O)c1)c1cc(O)c(O)c(O)c1 [EPIGALOCATECHIN GALLATE]
- Activity [1]: 33.1%

Structure (SMILES): O=c1c(O)c(-c2ccc(O)cc2)oc2cc(O)cc(O)c12 [KAEMPFEROL]
- viability at 100 µg/mL [3]: 57.5%
- viability at 100 µg/mL [4]: 47.9%
- Activity [5]: < 95.5%
- Activity [6]: Dose-dependent effect
- Activity [7]: 88.25%
- inhibition [8]: Active
- Activity [9]: inactive
- Activity [10]: Active
- inhibition [11]: Dose-dependent effect
- viability at 100 µg/mL [12]: 60.2%
- Activity [13]: Active
- Activity [14]: Active
- inhibition at 100 µg/mL [15]: 36.5%
- Activity [16]: tde
- Activity [17]: Dose-dependent effect
- viability at 100 µg/mL [18]: 59.2%
- Activity [19]: Active
- Activity [1]: 59.8%
- Activity [2]: Dose-dependent effect
- EC50 [2]: 7.74 µmol
- Activity [20]: Dose-dependent effect
- Activity [21]: Active
- inhibition at 100 µg/mL [22]: 87.4%
- Activity [23]: Active
- Activity [24]: Dose-dependent effect
- Activity [25]: Active
- Activity [26]: Active
- Activity [27]: Active
- Activity [28]: inactive

Structure (SMILES): O=c1c(O)c(-c2ccc(O)c(O)c2)oc2cc(O)cc(O)c12 [QUERCETIN]
- EC50 [2]: 4.63 µmol
